Test [1] deals with Influenza A/Duck/MN/1525/81 (H5N1). More on the design: species or system mice. The following applies: mouse, in vivo.
Test [2] deals with human PBMCs activated with Poly r(I:C). Put plainly: cells. As to conditions: for EC50: read-out: EC50 for reduction of cytokine release (TNFalpha production) from human PBMCs. It counts as cell-based.
The test system of test [3] is Influenza A/Duck/MN/1525/81 (H5N1). More on the design: species or system mice. The following applies: mouse, in vivo. The source holds these as a separate data set.
Test [4] has the same test system. More on the design: species or system mice. The following applies: mouse, in vivo. This is another data set of the same source.
For test [5] the test system is unchanged. Set-up: species or system mice. The following applies: mouse, in vivo. The source holds these as a separate data set.
Test [6] has the same test system. More on the design: species or system mice. The following applies: mouse, in vivo. This is another data set of the same source.

Read-outs that look alike come from different tables or passages of the source.

These results are taken from patent US20140275237A1, “BERAPROST ISOMER AS AN AGENT FOR THE TREATMENT OF VIRAL INFECTION” (priority 2013, published 2014).

As a reminder, the EC50 is the concentration needed to bring the measured effect to its halfway point.

With `CC#CC[C@H](C)[C@H](O)/C=C/[C@@H]1[C@H]2c3cccc(CCCC(=O)[O-])c3O[C@H]2C[C@H]1O.[Na+]` (single isomer, unassigned; isomer a) [Isomer A], the “Average % loss (animal weight loss as percent of initial weight)” value in test [1] is recorded as 76%. Moreover, in test [2], the EC50 was 4 nM. In test [3], the “MDD (mean day of death)” value was 13 and the Survival was 4/10. Also, in test [4], the “Mean number of cells (lung)” value is listed as 1.15. Also, in test [5], the “Lung cytokine concentration, CCL2 Average” value is given as 953 pg/mL; the “Lung cytokine concentration, IFNg Average” value came out at 1046 pg/mL; the “Lung cytokine concentration, IL-6 Average” value is 521 pg/mL; the “Lung cytokine concentration, IL-10 Average” value was found to be 223 pg/mL. The “Lung cytokine concentration, IL-12 Ave” value in test [5] is 3800 pg/mL. For the same compound, in test [6], the “Lung score, Mean” value is listed as 2.00 and the “Lung weight, Mean” value is listed as 0.22 grams.
In the case of `CC#CCC(C)C(O)C=CC1C(O)CC2Oc3c(CCCC(=O)O)cccc3C21` (single isomer, unassigned; isomer d) [Isomer D], in test [1], the “Average % loss (animal weight loss as percent of initial weight)” value was 68%. For the same compound, in test [2], the “EC50 for reduction of cytokine release (TNFalpha production) from human PBMCs” value is “No”. Moreover, in test [3], the “MDD (mean day of death)” value is 7 and the Survival is given as 0/10. Besides, in test [5], the “Lung cytokine concentration, CCL2 Average” value was 2347 pg/mL; the “Lung cytokine concentration, IFNg Average” value worked out at 2074 pg/mL; the “Lung cytokine concentration, IL-6 Average” value is 1291 pg/mL; the “Lung cytokine concentration, IL-10 Average” value came out at 758 pg/mL. The “Lung cytokine concentration, IL-12 Ave” value in test [5] stood at 2603 pg/mL. Moreover, in test [6], the “Lung score, Mean” value was determined as 3.50 and the “Lung weight, Mean” value worked out at 0.37 grams.
With `CC#CCC(C)C(O)C=CC1C(O)CC2Oc3c(CCCC(=O)[O-])cccc3C21.[Na+]` (centres unmarked) [Beraprost, 2,3,3a,8b-tetrahydro-2-hydroxyl-1-(3-hydroxyl-4-methyl-1-octen-6-ynyl)-1H-cyclopenta[b]benzofuran-5-butanoic acid, sodium salt], the “Average % loss (animal weight loss as percent of initial weight)” value in test [1] worked out at 76%. Also, the 50% effective concentration (EC50) in test [2] (Homo sapiens, PBMC, 18 h) was 11 nM. In test [3], the “MDD (mean day of death)” value amounted to 11.5 and the Survival is listed as 3/10. The “Mean number of cells (lung)” value in test [4] is on record as 2.63. In test [5], the “Lung cytokine concentration, CCL2 Average” value is 1308 pg/mL; the “Lung cytokine concentration, IFNg Average” value is given as 1601 pg/mL; the “Lung cytokine concentration, IL-6 Average” value was 604 pg/mL; the “Lung cytokine concentration, IL-10 Average” value is on record as 621 pg/mL. For the same compound, the “Lung cytokine concentration, IL-12 Ave” value in test [5] is 3517 pg/mL. In test [6], the “Lung score, Mean” value is 2.0 and the “Lung weight, Mean” value is 0.24 grams.
